For test [1], the system named is HL-60 (promyelocytic leukemia). Nature of the test: Calcein AM cytotoxicity assay, HL60. In kind it is cell-based, human. The note with it: 72 hours incubation. From the text: (§1) Because toxic compounds negatively influence metabolic processes in cells, many standard cytotoxicity assays are based on measurement of metabolisation rate of various artificial substrates. Resulting product is then quantified e.g. by means of spectrometry. The assays can be easily modified for use in 96-well plates. For evaluation of cytotoxic effect of the novel substituted 9-substituted cytokinin derivatives of this invention, a microtiter assay based on quantification of metabolisation of Calcein AM was used. The assay is widely used in drug screening programs and in chemosensitivity testing. In the living cells, Calcein AM is enzymatically hydrolysed and accumulation of resulting calcein is manifested by green fluorescence.
(§2) In the routine screening the following cell lines have been used: CEM (T-lymphoblastoid leukemia), HL-60 (promyelocytic leukemia), K-562 (human erythroleukemia), MCF-7 (breast carcinoma), HOS (human osteogenic sarcoma), and G-361 (human malignant melanoma). Normal human fibroblasts BJ were used as a control for routine screening of the compounds. The cells were kept in Nunc/Corning 80 cm^2 plastic bottles and grown in cell culture medium (DMEM containing 5 g/l glucose, 2 mM glutamine, 100 U/ml penicilline, 100 μg/ml streptomycine, 10% fetal bovine serum and sodium hydrogencarbonate), the compounds were prepared according to the procedure of the present invention.
(§3) The cell suspensions were prepared and diluted according to the particular cell type and the expected target cell density (2.500-30.000 cells per well based on cell growth characteristics) and pippetted (80 μl) into 96-well plates. Inoculates were allowed a pre-incubation period of 24 hours at 37° C. and 5% CO2 for stabilisation. Tested compound was added in total volume of 20 μl of water at time zero. Usually, test compound was evaluated at six 3-fold dilutions. In routine testing, the highest concentration tested was 166.7 μM. All drug concentrations were tested in triplicates. Incubations of cells with the test compounds lasted for 72 hours at 37° C., in 5% CO2 atmosphere and 100% humidity. At the end of incubation period Calcein AM in PBS was added into final concentration of 1 μg/ml. After another 1 hour of incubation fluorescence (FD) was measured with the Labsystem FIA Reader Fluoroscan Ascent (Microsystems). Tumor cell survival (TCS) was estimated using the following equation: […]=(FDdrug exposed well/FDcontrol well)×100%. The GI50 value, the drug concentration causing 50% reduction of esterase activity, was calculated from the obtained dose response curves (FIG. 1).
(§4) Cytoxicity of novel compounds was tested on panel of cell lines of different histogenetic and species origin (Table 3). […] The effective novel derivatives killed tumour cells in concentrations close to 0.1-50 μM.

For test [2], the system named is Normal human fibroblasts BJ. Nature of the test: Calcein AM cytotoxicity assay, BJ. Format: cell-based. The note with it: 72 hours incubation.
Description: as §1, §2, §3, §4

Test [3] concerns HOS (human osteogenic sarcoma). Nature of the test: Calcein AM cytotoxicity assay, HOS. Format: cell-based. The note with it: 72 hours incubation.
Description: as §1, §2, §3, §4

The subject of test [4] is MCF-7 (breast carcinoma). Nature of the test: Calcein AM cytotoxicity assay, MCF7. In kind it is cell-based. The note with it: 72 hours incubation.
Description: as §1, §2, §3, §4

The subject of test [5] is K-562 (human erythroleukemia). Nature of the test: Calcein AM cytotoxicity assay, K-562. The note with it: 72 hours incubation. Format: cell-based.
Description: as §1, §2, §3, §4

For test [6], the system named is cytokinin-dependent tobacco callus Nicotiana tabacum L. cv. Wisconsin 38. Nature of the test: Growth of cytokinin-dependent tobacco callus. In kind it is cell-based. The note with it: for Activity (%) [10^−5 mol · l^−1 KR = 100%]: at concentration with highest activity, relative to control cytokinin; for Concentration with highest activity: tobacco callus fresh weight after four weeks. The protocol: Cytokinin effect of newly prepared derivatives was tested using cytokinin-dependent tobacco callus. The cytokinin-dependent tobacco callus Nicotiana tabacum L. cv. Wisconsin 38 was maintained at 25° C. in darkness on modified MS medium, containing per 1 liter: 4 μmol of nicotinic acid, 2.4 μmol of pyridoxine hydrochloride, 1.2 μmol of thiamine, 26.6 μmol of glycine, 1.37 μmol of glutamine, 1.8 μmol of myo-inositol, 30 g of sucrose, 8 g of agar, 5.37 μmol of NAA and 0.5 μmol of the compound tested. Subcultivation was carried out every three weeks. Fourteen days before the bioassay, the callus tissue was transferred to the media without 6-benzylaminopurine. The biological activity was determined from the increase of the fresh callus weight after four weeks of cultivation. Five replicates were prepared for each concentration of the compound tested and the entire test was repeated twice. […] The compounds to be tested were dissolved in dimethylsulfoxide (DMSO) and the solution brought up to 10^−3 M with distilled water. […] The stimulatory activity was calculated from the dose-dependent fresh weight callus growth curves.
From the obtained data, the concentration with the highest activity was selected for each compound tested. Relative activity of the compound at this concentration was calculated (Table 5). […]

In test [7] the test system is CEM (T-lymphoblastoid leukemia). Nature of the test: Calcein AM cytotoxicity assay, CEM. Format: cell-based. The note with it: 72 hours incubation, Calcein AM.
Description: as §1, §2, §3, §4

One may read the GI50 as the concentration that inhibits growth by half. As for `O=P(O)(O)OC[C@H]1O[C@@H](n2cnc3c(NCc4ccc(F)cc4Cl)ncnc32)[C@H](O)[C@@H]1O` [2-chloro-4-fluorobenzylamino, 6-(2-chloro-4-fluorobenzylamino)purine riboside-5′-monophosphate], the GI50 in test [1] was 9 µM; in test [2], over 167 µM; in test [3], over 167 µM; in test [4], over 167 µM; in test [5], 11.7 µM; in test [7], 20.9 µM. Besides, in test [6], the “Activity (%) [10^−5 mol · l^−1 KR = 100%]” value (shortened to “Activity (%)”) came to 108 ± 4%. For the same molecule, the “Concentration with highest activity” value in test [6] was 10^−5 mol · l^−1.
On to `O=P(O)(O)OC[C@H]1O[C@@H](n2cnc3c(NCc4ccccc4Br)ncnc32)[C@H](O)[C@@H]1O` [Compound 7, 6-(2-bromobenzylamino)purine riboside-5′-monophosphate], for which the concentration for 50% growth inhibition (GI50) is 6.6 µM in test [1]; over 167 µM in test [2]; over 167 µM in test [3]; over 167 µM in test [4]; 10 µM in test [5]; 12.3 µM in test [7]. In addition, in test [6], the “Activity (%)” value is 100 ± 4%. Moreover, the “Concentration with highest activity” value in test [6] is 10^−5 mol · l^−1.
In the case of `O=P(O)(O)OC[C@H]1O[C@@H](n2cnc3c(NCc4cccc(Br)c4)ncnc32)[C@H](O)[C@@H]1O` [Compound 8, 6-(3-bromoobenzylamino)purine riboside-5′-monophosphate], the GI50 is 8 µM in test [1]; over 167 µM in test [2]; over 167 µM in test [3]; over 167 µM in test [4]; 19.7 µM in test [5]; 5 µM in test [7]. In addition, in test [6], the “Activity (%)” value is reported as 102 ± 11%. Also, the “Concentration with highest activity” value in test [6] is reported as 10^−6 mol · l^−1.
As for `O=P(O)(O)OC[C@H]1O[C@@H](n2cnc3c(NCc4ccc(Br)cc4)ncnc32)[C@H](O)[C@@H]1O` [Compound 9, 6-(4-bromobenzylamino)purine riboside-5′-monophosphate], the GI50 in test [1] is 47.7 µM; in test [2], over 167 µM; in test [3] it was over 167 µM; in test [4], over 167 µM; in test [5], 68.2 µM; in test [7] it was 20.6 µM.
For the molecule `O=P(O)(O)OC[C@H]1O[C@@H](n2cnc3c(NCc4ccc(Cl)cc4Cl)ncnc32)[C@H](O)[C@@H]1O` [Compound 24, 6-(2,4-dichlorobenzylamino)purine riboside-5′-monophosphate], the GI50 in test [1] is 96.3 µM; in test [2], over 167 µM; in test [3], over 167 µM; in test [4], 127 µM; in test [5], 85.7 µM; in test [7], 86.7 µM.
Consider `O=P(O)(O)OC[C@H]1O[C@@H](n2cnc3c(NCc4ccc(Cl)c(Cl)c4)ncnc32)[C@H](O)[C@@H]1O` [Compound 25, 6-(3,4-dichlorobenzylamino)purine riboside-5-monophosphate], for which the GI50 in test [1] was 1.1 µM; in test [2], over 167 µM; in test [3] it was over 167 µM; in test [4] it was 88.8 µM; in test [5], 6.5 µM; in test [7], 3 µM.
Turning to `COc1ccc(CNc2ncnc3c2ncn3[C@@H]2O[C@H](COP(=O)(O)O)[C@@H](O)[C@H]2O)cc1O` [Compound 30, 6-(3-hydroxy-4-methoxybenzylamino)purine riboside-5′-monophosphate], the GI50 in test [1] was 68.9 µM; in test [2], over 167 µM; in test [3], over 167 µM; in test [4], over 167 µM; in test [5], over 167 µM; in test [7] it was 79.3 µM.
Take `COc1cccc(CNc2ncnc3c2ncn3[C@@H]2O[C@H](COP(=O)(O)O)[C@@H](O)[C@H]2O)c1OC` [Compound 31, 6-(2,3-dimethoxybenzylamino)purine riboside-5′-monophosphate]: the GI50 is 109 µM in test [1]; over 167 µM in test [2]; over 167 µM in test [3]; over 167 µM in test [4]; over 167 µM in test [5]; over 167 µM in test [7].
On to `COc1ccc(CNc2ncnc3c2ncn3[C@@H]2O[C@H](COP(=O)(O)O)[C@@H](O)[C@H]2O)c(OC)c1` [Compound 32, 6-(2,4-dimethoxybenzylamino)purine riboside-5′-monophosphate], for which the GI50 in test [1] was 39 µM; in test [2] it was over 167 µM; in test [3], over 167 µM; in test [4], over 167 µM; in test [5] it was over 167 µM; in test [7] it was over 167 µM.
In the case of `COc1cc(CNc2ncnc3c2ncn3[C@@H]2O[C@H](COP(=O)(O)O)[C@@H](O)[C@H]2O)cc(OC)c1` [Compound 34, 6-(3,5-dimethoxybenzylamino)purine riboside-5′-monophosphate], the GI50 in test [1] is 18.8 µM; in test [2], over 167 µM; in test [3], over 167 µM; in test [4], over 167 µM; in test [5] it was over 167 µM.
For the molecule `O=P(O)(O)OC[C@H]1O[C@@H](n2cnc3c(NCc4ccc(F)cc4F)ncnc32)[C@H](O)[C@@H]1O` [Compound 36, 6-(2,4-difluorobenzylamino)purine riboside-5-monophosphate], the GI50 in test [1] was 3.4 µM; in test [2], over 167 µM; in test [3] it was over 167 µM; in test [4], over 167 µM; in test [5], 7.4 µM; in test [7] it was 7.1 µM.
In the case of `O=P(O)(O)OC[C@H]1O[C@@H](n2cnc3c(NCc4cc(F)cc(F)c4)ncnc32)[C@H](O)[C@@H]1O` [Compound 37, 6-(3,5-difluorobenzylamino)purine riboside-5′-monophosphate], the GI50 in test [1] was 9.1 µM; in test [2], over 167 µM; in test [3], over 167 µM; in test [4], over 167 µM; in test [5], over 167 µM; in test [7], 24.5 µM. Further, the “Activity (%)” value in test [6] is 105 ± 3%. For the same molecule, in test [6], the “Concentration with highest activity” value is given as 10^−6 mol · l^−1.
Turning to `O=P(O)(O)OC[C@H]1O[C@@H](n2cnc3c(NCc4ccc(F)c(F)c4F)ncnc32)[C@H](O)[C@@H]1O` [Compound 38, 6-(2,3,4-trifluorobenzylamino)purine riboside-5′-monophosphate], the concentration for 50% growth inhibition (GI50) in test [1] is 13 µM; in test [2] it was over 167 µM; in test [3], over 167 µM; in test [4], over 167 µM; in test [5], over 167 µM; in test [7] it was 58.2 µM.
Regarding `O=P(O)(O)OC[C@H]1O[C@@H](n2cnc3c(NCc4cc(F)c(F)cc4F)ncnc32)[C@H](O)[C@@H]1O` [Compound 39, 6-(2,4,5-trifluorobenzylamino)purine riboside-5′-monophosphate], in test [6], the “Activity (%)” value came out at 105 ± 3% and the “Concentration with highest activity” value is 10^−5 mol · l^−1.
Turning to `O=P(O)(O)OC[C@H]1O[C@@H](n2cnc3c(NCc4c(F)ccc(F)c4F)ncnc32)[C@H](O)[C@@H]1O` [Compound 40, 6-(2,3,6-trifluorobenzylamino)purine riboside-5′-monophosphate], the concentration for 50% growth inhibition (GI50) in test [1] is 13 µM; in test [2], over 167 µM; in test [3] it was over 167 µM; in test [4], over 167 µM; in test [5], over 167 µM.

The record behind these values is US9073961B2, “Substitution derivatives of N6 -benzyladenosine-5′-monophosphate, methods of preparation thereof, use thereof as medicaments, and therapeutic preparations containing these compounds” (UNIVERZITA PALACKEHO V OLOMOUCI, priority 2010, dated 2015).
